Legend:
[1] = target: T1, ATP-dependent translocase ABCB1 (Homo sapiens, UniProt P08183); test: Negative allosteric modulator activity at P-gp in human LCC6MDR cells overexpressing P-gp assessed as reversal of P-gp mediated paclitaxel resistance activity by measuring relative fold at 1 uM incubated for 5 days by MTS assay; format: cell-based; details: 120 h, time 5 day
[2] = target: T1, ATP-dependent translocase ABCB1; test: Negative allosteric modulator activity at P-gp in human LCC6MDR cells assessed as increase in intracellular doxorubicin accumulation using doxorubicin as substrate incubated for 150 mins by microplate reader assay; format: cell-based; details: 2.5 h
[3] = target: T1, ATP-dependent translocase ABCB1; test: Binding affinity to human P-glycoprotein expressed in LCC6MDR cells assessed as stabilization of protein by measuring fluorescence at 1 uM incubated for 1 hr by Western blotting analysis; format: cell-based
[4] = target: T1, ATP-dependent translocase ABCB1; test: Binding affinity to P-glycoprotein in human LCC6MDR cells assessed as stabilization of protein by measuring fluorescence at 1 uM incubated for 1 hr by Western blotting analysis; format: cell-based
[5] = target: T1, ATP-dependent translocase ABCB1; test: Binding affinity to human P-glycoprotein expressed in LCC6MDR cells assessed as stabilization of protein by measuring fluorescence at 0.1 to 1 uM by Western blotting analysis; format: cell-based; details: dose 0.1-1 µM
[6] = target: T1, ATP-dependent translocase ABCB1; test: Displacement of FM-04 from human P-glycoprotein expressed in LCC6MDR cells at 1 uM by competitive binding assay; format: cell-based
[7] = target: T2, ATP-dependent translocase ABCB1 (Mus musculus, UniProt P06795); test: Binding affinity to mouse P-glycoprotein expressed in Pichia pastoris assessed as stabilization of protein by measuring fluorescence at 1 uM by Western blotting analysis
T2 sequence (P06795 whole entry): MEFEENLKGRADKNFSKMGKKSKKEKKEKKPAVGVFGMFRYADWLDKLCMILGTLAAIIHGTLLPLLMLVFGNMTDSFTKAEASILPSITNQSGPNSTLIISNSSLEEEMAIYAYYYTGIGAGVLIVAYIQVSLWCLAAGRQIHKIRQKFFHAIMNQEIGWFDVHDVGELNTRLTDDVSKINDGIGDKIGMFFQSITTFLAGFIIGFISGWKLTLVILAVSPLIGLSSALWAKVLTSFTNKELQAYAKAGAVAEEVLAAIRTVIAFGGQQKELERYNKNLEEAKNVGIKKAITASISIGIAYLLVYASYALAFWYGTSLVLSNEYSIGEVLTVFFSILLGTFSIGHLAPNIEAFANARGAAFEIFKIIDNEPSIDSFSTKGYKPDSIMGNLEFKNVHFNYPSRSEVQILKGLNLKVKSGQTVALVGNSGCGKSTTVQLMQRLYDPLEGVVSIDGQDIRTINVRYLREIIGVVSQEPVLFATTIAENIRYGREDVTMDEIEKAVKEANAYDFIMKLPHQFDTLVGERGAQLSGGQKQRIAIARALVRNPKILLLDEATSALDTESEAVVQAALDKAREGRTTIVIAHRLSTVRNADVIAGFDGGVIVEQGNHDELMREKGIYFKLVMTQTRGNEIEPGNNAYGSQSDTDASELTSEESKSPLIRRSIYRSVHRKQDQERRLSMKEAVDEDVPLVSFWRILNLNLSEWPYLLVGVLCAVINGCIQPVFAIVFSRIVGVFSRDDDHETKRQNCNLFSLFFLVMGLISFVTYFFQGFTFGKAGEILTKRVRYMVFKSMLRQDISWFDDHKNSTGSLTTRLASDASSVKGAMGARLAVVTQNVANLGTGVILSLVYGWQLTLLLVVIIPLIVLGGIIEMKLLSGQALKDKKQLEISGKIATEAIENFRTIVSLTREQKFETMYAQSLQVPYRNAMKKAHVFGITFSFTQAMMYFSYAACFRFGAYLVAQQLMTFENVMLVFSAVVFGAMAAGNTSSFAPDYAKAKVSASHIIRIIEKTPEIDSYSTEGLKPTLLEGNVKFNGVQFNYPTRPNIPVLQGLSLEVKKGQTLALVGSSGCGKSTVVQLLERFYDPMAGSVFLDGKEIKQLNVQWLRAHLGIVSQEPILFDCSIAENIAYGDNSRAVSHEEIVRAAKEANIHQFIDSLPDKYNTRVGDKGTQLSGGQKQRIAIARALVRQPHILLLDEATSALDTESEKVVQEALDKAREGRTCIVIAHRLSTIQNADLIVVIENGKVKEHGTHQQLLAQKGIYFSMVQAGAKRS

[8] = target: T2, ATP-dependent translocase ABCB1; test: Displacement of FM04 from mouse P-glycoprotein expressed in Pichia pastoris at 1 uM by competitive binding assay
[9] = target: T2, ATP-dependent translocase ABCB1; test: Binding affinity to biotin-labeled mouse P-glycoprotein expressed in Pichia pastoris assessed as stabilization of protein by measuring fluorescence at 100 uM incubated for 2 hr by Streptavidin-HRP blotting assay
[10] = target: T2, ATP-dependent translocase ABCB1; test: Binding affinity to mouse P-glycoprotein expressed in Pichia pastoris assessed as stabilization of protein by measuring fluorescence at 100 uM incubated for 2 hr by Streptavidin-HRP blotting assay
[11] = target: T2, ATP-dependent translocase ABCB1; test: Binding affinity to mouse P-glycoprotein expressed in Pichia pastoris assessed as stabilization of protein by measuring fluorescence at 100 uM incubated for 2 hr by Streptavidin-pull down blotting assay
[12] = target: T2, ATP-dependent translocase ABCB1; test: Binding affinity to mouse P-glycoprotein expressed in Pichia pastoris assessed as stabilization of protein by measuring fluorescence at 1000 uM incubated for 2 hr by Streptavidin-pull down blotting assay

T1 sequence (P08183 whole entry): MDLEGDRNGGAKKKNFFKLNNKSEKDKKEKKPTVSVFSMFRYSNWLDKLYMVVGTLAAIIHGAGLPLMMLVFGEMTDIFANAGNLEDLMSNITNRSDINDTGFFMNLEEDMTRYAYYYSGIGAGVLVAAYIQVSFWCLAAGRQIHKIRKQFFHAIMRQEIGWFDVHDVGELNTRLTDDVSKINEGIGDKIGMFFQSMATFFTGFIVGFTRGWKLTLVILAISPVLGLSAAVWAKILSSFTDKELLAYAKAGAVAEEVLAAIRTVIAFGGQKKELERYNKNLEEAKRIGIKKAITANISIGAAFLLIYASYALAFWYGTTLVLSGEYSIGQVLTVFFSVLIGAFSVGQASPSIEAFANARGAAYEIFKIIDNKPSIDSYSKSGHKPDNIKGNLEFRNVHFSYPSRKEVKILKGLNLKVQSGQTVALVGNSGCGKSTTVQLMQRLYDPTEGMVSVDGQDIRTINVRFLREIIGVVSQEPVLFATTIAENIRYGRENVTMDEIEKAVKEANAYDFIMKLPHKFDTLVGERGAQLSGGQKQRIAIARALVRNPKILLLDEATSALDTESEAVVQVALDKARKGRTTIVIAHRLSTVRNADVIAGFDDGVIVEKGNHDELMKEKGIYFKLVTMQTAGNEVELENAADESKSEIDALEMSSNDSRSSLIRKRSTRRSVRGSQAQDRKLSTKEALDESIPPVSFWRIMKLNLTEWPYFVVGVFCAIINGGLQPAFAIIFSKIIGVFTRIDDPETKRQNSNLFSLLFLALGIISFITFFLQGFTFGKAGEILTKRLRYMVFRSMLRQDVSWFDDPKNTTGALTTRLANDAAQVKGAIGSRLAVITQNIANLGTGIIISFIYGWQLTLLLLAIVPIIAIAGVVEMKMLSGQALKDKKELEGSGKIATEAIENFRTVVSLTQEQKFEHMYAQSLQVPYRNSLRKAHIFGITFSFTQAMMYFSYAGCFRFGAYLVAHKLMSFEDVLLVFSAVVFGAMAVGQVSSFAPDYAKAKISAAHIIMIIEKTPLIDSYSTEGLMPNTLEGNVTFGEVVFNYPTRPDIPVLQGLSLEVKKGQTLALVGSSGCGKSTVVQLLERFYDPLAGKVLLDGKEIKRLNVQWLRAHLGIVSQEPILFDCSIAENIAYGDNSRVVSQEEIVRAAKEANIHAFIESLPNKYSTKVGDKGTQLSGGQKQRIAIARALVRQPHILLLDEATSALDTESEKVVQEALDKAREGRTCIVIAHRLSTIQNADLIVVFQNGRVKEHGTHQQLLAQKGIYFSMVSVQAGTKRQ

fold change (FC) [1]	Activity [3]	Activity [4]	Compound	other results
61.7	Active	Not Active	[N-]=[N+]=NCc1cc(CNCCOCCOc2ccc(-c3cc(=O)c4ccccc4o3)cc2)cc(N=[N+]=[N-])c1	Activity [2]: Active
2.3	Not Active	Not Active	C#CCN(CCOCCOc1ccc(-c2cc(=O)c3ccccc3o2)cc1)Cc1ccc(C2(C(F)(F)F)N=N2)cc1	
0.4			C#CCNc1cc(C)cc2c(=O)cc(-c3ccc(OCCOCCN(Cc4ccc(C5(C(F)(F)F)N=N5)cc4)Cc4ccc(C5(C(F)(F)F)N=N5)cc4)cc3)oc12	
68			O=c1cc(-c2ccc(OCCOCCN(CCOCCOc3ccc(-c4cc(=O)c5ccccc5o4)cc3)Cc3ccccc3)cc2)oc2ccccc12	
1			O=c1cc(-c2ccc(O)cc2)oc2cc(O)cc(O)c12 [APIGENIN]	
28			O=c1cc(-c2ccc(OCCOCCOCCOCCOc3ccc(-c4cc(=O)c5ccccc5o4)cc3)cc2)oc2ccccc12	
11			O=c1cc(-c2ccc(OCCOCCOCCOCCOc3ccc(-c4cc(=O)c5c(O)cc(O)cc5o4)cc3)cc2)oc2cc(O)cc(O)c12	
56.3			O=c1cc(-c2ccc(OCCOCCNCc3ccc(C4(C(F)(F)F)N=N4)cc3)cc2)oc2ccccc12	Activity [2]: Active
92.6	Active	Not Active	C#CCOc1cccc2oc(-c3ccc(OCCOCCNCc4ccc(C5(C(F)(F)F)N=N5)cc4)cc3)cc(=O)c12	Activity [2]: Active; Activity [5]: Dose-Dependent Effect; Activity [6]: Not Active; Activity [7]: Active; Activity [8]: Not Active; Activity [9]: Active; Activity [10]: Not Active; Activity [11]: Active; Activity [12]: Active
0.8			O=c1cc(-c2ccc(OCCOCCN(Cc3ccc(C4(C(F)(F)F)N=N4)cc3)Cc3ccc(C4(C(F)(F)F)N=N4)cc3)cc2)oc2ccccc12	
0.5	Not Active	Not Active	C#CCNc1cc(C)cc2c(=O)cc(-c3ccc(OCCOCCNCc4ccc(C5(C(F)(F)F)N=N5)cc4)cc3)oc12	

— ChEMBL document CHEMBL5338754, “Identification of Binding Sites in the Nucleotide-Binding Domain of P-Glycoprotein for a Potent and Nontoxic Modulator, the Amine-Containing Monomeric Flavonoid FM04” (J Med Chem, 2023)
